In US5200409A, “Composition and use of substituted 1,3-dithiolo-and 1,4-dithiinoquinoxalines as an antimicrobial” (The Dow Chemical Company, priority 1992, dated 1993):
Converted amounts (≈) assume the structure as drawn. Like-named read-outs stand apart in the source and are kept apart here.

How the values were obtained:
[1] = test system: Salmonella choleraesuis (Sc); test: Minimum inhibitory concentration (MIC) in nutrient agar; format: cell-based, Salmonella choleraesuis ATCC 10708; conditions: Salmonella enterica
Outline: (§1)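 Agar-dilution MIC in nutrient agar at pH 6.8 and pH 8.2 (tricine buffer), containing test compound at 0–500 ppm. Plates were inoculated by replicator with 10^8 CFU/ml suspensions of 24-h cultures and incubated 48 h at 30° C. Growth or no growth defines the MIC.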

[2] = test system: Trichoderma viride (Tv); test: Minimum inhibitory concentration (MIC) in malt yeast agar; format: cell-based, Trichoderma viride ATCC 8678; conditions: read-out: Minimum Inhibitory Concentration, Tv
Outline: (§2)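 Molten malt yeast agar is dosed with test compound, from a 1% acetone–water stock, to final levels of 500 down to 1.0 ppm, then plated and dried for 24 hours. A replicator then applies fungal suspensions, and plates are read after 72 hours at 30° C.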

[3] = test system: Aspergillus niger (An); test: as above; format: cell-based, Aspergillus niger ATCC 16404; conditions: malt yeast agar; 30° C.; 72 hours for fungi; read-out: Minimum Inhibitory Concentration, An
Outline: as §2

[4] = test system: Pseudomonas aeruginosa (PRD-10); test: Minimum inhibitory concentration (MIC) in nutrient agar; format: cell-based, Pseudomonas aeruginosa ATCC 15442; conditions: 48 h
Outline: as §1

[5] = test system: Candida albicans (Ca); test: Minimum inhibitory concentration (MIC) in malt yeast agar; format: cell-based, Candida albicans ATCC 10231; conditions: malt yeast agar; 30° C.; 48 hours for yeast; read-out: Minimum Inhibitory Concentration, Ca
Outline: (§3)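 Compound dispersed in malt yeast agar at final 500, 250, 100, 50, 25, 10, 5, 2.5, 1.0 and 0 ppm (from 1% acetone/water solution); plates dried 24 h, then inoculated with saline/octylphenoxy polyethoxy ethanol suspensions of 7-day cultures diluted 1:9. Incubated at 30° C; read at 48 h for yeast, 72 h for fungi.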

[6] = test system: Aureobasidium pullulan (Ap); test: as above; format: cell-based, Aureobasidium pullulan ATCC 16622; conditions: malt yeast agar; 30° C.; 48 hours for yeast and 72 hours for fungi; read-out: Minimum Inhibitory Concentration, Ap
Outline: as §2

[7] = test system: Enterobacter aerogenes (Ea); test: Minimum inhibitory concentration (MIC) in nutrient agar; format: cell-based, Enterobacter aerogenes ATCC 13048; conditions: Klebsiella aerogenes, 48 h
Outline: as §1

[8] = test system: Bacillus subtilis (Bs); test: as above; format: cell-based, Bacillus subtilis ATCC 8473
Outline: as §1

[9] = test system: Saccharomyces cerevisiae (Sc); test: Minimum inhibitory concentration (MIC) in malt yeast agar; format: cell-based, Saccharomyces cerevisiae ATCC 4105; conditions: read-out: Minimum Inhibitory Concentration, Sc
Outline: as §3

[10] = test system: Penicillium chrysogenum (Pc); test: as above; format: cell-based, Penicillium chrysogenum ATCC 9480; conditions: read-out: Minimum Inhibitory Concentration, Pc
Outline: as §2

[11] = test system: Escherichia coli (Ec); test: Minimum inhibitory concentration (MIC) in nutrient agar; format: cell-based, Escherichia coli ATCC 11229
Outline: as §1

[12] = test system: Pseudomonas aeruginosa (Pa); test: as above; format: cell-based, Pseudomonas aeruginosa ATCC 10145; conditions: 48 hours
Outline: as §1

[13] = test system: Klebsiella pneumoniae (Kp); test: as above; format: cell-based, Klebsiella pneumoniae ATCC 8308
Outline: as §1

[14] = test system: Fusarium oxysporum (Fo); test: Minimum inhibitory concentration (MIC) in malt yeast agar; format: cell-based, Fusarium oxysporum ATCC 48112; conditions: read-out: Minimum Inhibitory Concentration, Fo
Outline: as §2

[15] = test system: Proteus vulgaris (Pv); test: Minimum inhibitory concentration (MIC) in nutrient agar; format: cell-based, Proteus vulgaris ATCC 881
Outline: as §1

[16] = test system: Staphylococcus aureus (Sa); test: as above; format: cell-based, Staphylococcus aureus ATCC 6538
Outline: as §1

[17] = 48 h, pH 6.8, read-out: Minimum Inhibitory Concentration, Sc
[18] = 48 h, pH 8.2, read-out: Minimum Inhibitory Concentration, Sc
[19] = malt yeast agar, 30° C., 72 hours for fungi
[20] = pH 6.8, read-out: Minimum Inhibitory Concentration, PRD
[21] = pH 8.2, read-out: Minimum Inhibitory Concentration, PRD
[22] = pH 6.8, read-out: Minimum Inhibitory Concentration, Ea
[23] = pH 8.2, read-out: Minimum Inhibitory Concentration, Ea
[24] = 48 h, pH 6.8, read-out: Minimum Inhibitory Concentration, Bs
[25] = 48 h, pH 8.2, read-out: Minimum Inhibitory Concentration, Bs
[26] = malt yeast agar, 30° C., 48 hours for yeast
[27] = 48 h, pH 6.8, read-out: Minimum Inhibitory Concentration, Ec
[28] = 48 h, pH 8.2, read-out: Minimum Inhibitory Concentration, Ec
[29] = 48 h, pH 8.2, read-out: Minimum Inhibitory Concentration, Kp
[30] = pH 6.8, nutrient agar, 30° C., 48 hours, read-out: Minimum Inhibitory Concentration, Kp
[31] = 48 h, pH 6.8, read-out: Minimum Inhibitory Concentration, Pv
[32] = 48 h, pH 8.2, read-out: Minimum Inhibitory Concentration, Pv
[33] = 48 h, pH 8.2, read-out: Minimum Inhibitory Concentration, Sa
[34] = pH 6.8, nutrient agar, 30° C., 48 hours, read-out: Minimum Inhibitory Concentration, Sa
[35] = pH 6.8, nutrient agar, 30° C., 48 hours, read-out: Minimum Inhibitory Concentration, Bs
[36] = pH 8.2, nutrient agar, 30° C., 48 hours, read-out: Minimum Inhibitory Concentration, Bs
[37] = pH 8.2, nutrient agar, 30° C., 48 hours, read-out: Minimum Inhibitory Concentration, Sa

| SMILES | MIC [1, 17] [µg/mL] | MIC [1, 18] [µg/mL] | MIC [2, 19] [µg/mL] | MIC [3] [µg/mL] | MIC [4, 20] [µg/mL] | MIC [4, 21] [µg/mL] | MIC [5] [µg/mL] | MIC [6] [µg/mL] | MIC [7, 22] [µg/mL] | MIC [7, 23] [µg/mL] | MIC [9, 26] [µg/mL] | MIC [11, 27] [µg/mL] | MIC [11, 28] [µg/mL] | MIC ([12]; pH 6.8, 30° C.) [µg/mL] | MIC ([12]; pH 8.2, 30° C.) [µg/mL] | MIC [13, 29] [µg/mL] | MIC [13, 30] [µg/mL] | MIC [14, 19] [µg/mL] | MIC [15, 32] [µg/mL] | MIC [16, 34] [µg/mL] | other results |
| --- | --- | --- | --- | --- | --- | --- | --- | --- | --- | --- | --- | --- | --- | --- | --- | --- | --- | --- | --- | --- | --- |
| Cc1cc2nc3c(nc2cc1[N+](=O)[O-])SC(=C(C#N)C#N)S3 [R, 6-nitro-7-methyl-1,3-dithiolo-(4,5-b)-quinoxaline-2-ylidene-propanedinitrile] | > 500 | > 500 | > 500 | 100 (≈ 305 µM) | > 500 | > 500 | > 500 | 500 (≈ 1530 µM) | > 500 | > 500 | 500 (≈ 1530 µM) | > 500 | > 500 | > 500 | > 500 | > 500 | > 500 | > 500 | > 500 | > 500 | MIC [8, 24]: > 500 µg/mL; MIC [8, 25]: > 500 µg/mL; MIC ([10]; 72 h): 50 µg/mL (≈ 153 µM); MIC [15, 31]: > 500 µg/mL; MIC [16, 33]: > 500 µg/mL |
| N#CC1=C(C#N)Sc2nc3cc([N+](=O)[O-])c(Cl)cc3nc2S1 [G, 7-chloro-8-nitro-1,4-dithiino-(2,3-b)-quinoxaline-2,3-dicarbonitrile] | > 500 | > 500 | – | 25 (≈ 71.9 µM) | > 500 | > 500 | 25 (≈ 71.9 µM) | 25 (≈ 71.9 µM) | > 500 | > 500 | – | > 500 | > 500 | > 500 | > 500 | > 500 | 500 (≈ 1440 µM) | – | > 500 | 25 (≈ 71.9 µM) | MIC ([2]; 72 h): 100 µg/mL (≈ 288 µM); MIC [8, 35]: 250 µg/mL (≈ 719 µM); MIC [8, 36]: 100 µg/mL (≈ 288 µM); MIC ([9]; 48 h): 25 µg/mL (≈ 71.9 µM); MIC ([10]; 72 h): 100 µg/mL (≈ 288 µM); MIC ([14]; 72 h): 100 µg/mL (≈ 288 µM); MIC [15, 31]: > 500 µg/mL; MIC [16, 37]: 50 µg/mL (≈ 144 µM) |
| COC(=O)c1ccc2nc3c(nc2c1)SC(C#N)=C(C#N)S3 [I, 7-carbomethoxy-1,4-dithiino-(2,3-b)-quinoxaline-2,3-dicarbonitrile] | – | > 500 | 25 (≈ 76.6 µM) | < 10 | 500 (≈ 1530 µM) | > 500 | < 10 | < 10 | > 500 | > 500 | < 10 | – | > 500 | 500 (≈ 1530 µM) | > 500 | > 500 | – | < 10 | > 500 | 25 (≈ 76.6 µM) | MIC ([1]; pH 6.8, nutrient agar, 30° C., 48 hours, read-out: Minimum Inhibitory Concentration, Sc): 100 µg/mL (≈ 306 µM); MIC [8, 35]: < 10 µg/mL; MIC [8, 36]: 50 µg/mL (≈ 153 µM); MIC [10, 19]: < 10 µg/mL; MIC ([11]; pH 6.8, nutrient agar, 30° C., 48 hours, read-out: Minimum Inhibitory Concentration, Ec): 100 µg/mL (≈ 306 µM); MIC ([13]; 48 h, pH 6.8, read-out: Minimum Inhibitory Concentration, Kp): 50 µg/mL (≈ 153 µM); MIC ([15]; pH 6.8, nutrient agar, 30° C., 48 hours, read-out: Minimum Inhibitory Concentration, Pv): 100 µg/mL (≈ 306 µM); MIC [16, 37]: 100 µg/mL (≈ 306 µM) |
| N#CC(C#N)=C1Sc2nc3ccccc3nc2S1 [Compound P, 1,3-dithiolo-(4,5-b)-quinoxaline-2-ylidene-propanedinitrile] | > 500 | > 500 | > 500 | 500 (≈ 1860 µM) | > 500 | > 500 | > 500 | 500 (≈ 1860 µM) | > 500 | > 500 | > 500 | > 500 | > 500 | > 500 | > 500 | > 500 | > 500 | > 500 | > 500 | > 500 | MIC [8, 24]: > 500 µg/mL; MIC [8, 25]: > 500 µg/mL; MIC [10, 19]: 500 µg/mL (≈ 1860 µM); MIC [15, 31]: > 500 µg/mL; MIC [16, 33]: > 500 µg/mL |
| N#CC(C#N)=C1Sc2nc3ccc(C(=O)c4ccccc4)cc3nc2S1 [W, 6-benzoyl-1,3-dithiolo-(4,5-b)-quinoxaline-2-ylidene-propanedinitrile] | > 500 | > 500 | > 500 | > 500 | > 500 | > 500 | > 500 | 500 (≈ 1340 µM) | > 500 | > 500 | > 500 | > 500 | > 500 | > 500 | > 500 | > 500 | > 500 | > 500 | > 500 | > 500 | MIC [8, 24]: > 500 µg/mL; MIC [8, 25]: > 500 µg/mL; MIC [10, 19]: > 500 µg/mL; MIC [15, 31]: > 500 µg/mL; MIC [16, 33]: > 500 µg/mL |
